Laboratory results as given in US20250064808A1, “METHODS FOR THE TREATMENT OF NLRP3 RELATED DISORDERS” (priority 2022, published 2025).

What was measured:
[1] = system: mPTP; assay: calcein-quenching assay for mPTP opening in BMDM; assay type: cell-based; settings: for induction of mPTP opening by mtROS generator: LPS-primed BMDM, DMNQ 20 μM 16 hrs or MitoParaquat 5 μM 1 hr
Experimental: (§2) Bone marrow cells were cultured in high glucose DMEM supplemented with 10% FBS, 20% L929-cell conditioned medium, and 100 U/mL penicillin-streptomycin for 7-10 days at 37° C. with 5% CO2 (Hornung et al., 2008).
(§3) Mitochondrial membrane potential was measured using TMRM according to manufacturer's instructions. Briefly, BMDM were primed or not with LPS for 4 h, and further stimulated with ATP or nigericin for 60 minutes. Cells were incubated with 200 nM TMRM for 30 minutes at 37° C. After washing twice, fluorescence intensity was determined per manufacturer's instructions using a FilterMax F5 multimode plate reader (Molecular Devices). Mitochondrial reactive oxygen species (mtROS) were measured using MitoSOX (Invitrogen) as described (Xian et al., 2021). BMDM treated as indicated were loaded with 4 μM MitoSOX for 20 minutes. After washing with PBS twice, cells were resuspended in PBS and counted. Equal numbers of cells from different treatment groups were then plated onto 96-well plates for fluorescence reading. To quantify [Ca^2+]m by 5 μM Rhod-2 or intracellular Ca^2+ intensity by 1 μM Fluo-4, BMDM treated as indicated were loaded with the respective dyes according to manufacturer's instructions for 30 minutes. After washing twice, fluorescence intensity was determined using a FilterMax F5 multimode plate reader (Molecular Devices). To analyze mPTP opening by calcein-quenching assay, BMDM treated as indicated were loaded with calcein at 2 μM and CoCl2 at 160 μM for 30 minutes at 37° C. according to manufacturer's instructions. After washing twice, fluorescence intensity was determined per with a FilterMax F5 multimode plate reader (Molecular Devices).

[2] = system: VDAC; assay: VDAC cross-linking assay (VDAC oligomerization) in BMDM; assay type: cell-based, mouse; settings: LPS-primed BMDM; for induction of VDAC oligomerization by mtROS generator: DMNQ 20 μM 16 hrs or MitoParaquat 5 μM 1 hr
Experimental: BMDM treated as indicated were washed and collected in PBS, incubated for 40 min at 30° C. with the cross-linking reagent EGS (200 μM). Samples were subjected to SDS-PAGE and IB analyzed with anti-VDAC antibody.

[3] = system: BMDM; assay: mtROS (MitoSOX) in BMDM; settings: LPS-primed BMDM, DMNQ 20 μM 16 hrs or MitoParaquat 5 μM 1 hr, compared with ATP
Experimental: as §2, §3

[4] = system: NLRP3 inflammasome; assay: NLRP3 inflammasome activation (Casp1 p20 and mature IL-1β, IB and ELISA) in BMDM; assay type: cell-based, mouse; settings: for activation of NLRP3 inflammasome by mtROS generator: BMDM −/+ LPS priming, DMNQ or MitoParaquat
Text: (§1) Paired antibodies (capture and detection) and standard recombinant mouse IL-1β and TNF were used to determine mouse cytokine concentrations according to manufacturer's instructions.

[5] = system: BMDM; assay: cytosolic mtDNA (qPCR after cellular fractionation) in BMDM; assay type: cell-based, mouse; settings: LPS-primed BMDM; for induction of mtDNA cytosolic release by mtROS generator: DMNQ 20 μM 16 hrs or MitoParaquat 5 μM 1 hr
Experimental: as §2
(§4) BMDM were stimulated as indicated. […] Briefly, BMDM were washed with PBS and harvested, 10% of which were saved for DNA extraction of whole cells. The remaining BMDM resuspended with pre-chilled mitochondrial extraction buffer 1 (220 mM mannitol, 70 mM sucrose, 20 mM HEPES-KOH, pH 7.5, 1 mM EDTA and 2 mg/mL bovine serum albumin) supplemented with a protease inhibitor cocktail and a phosphatase inhibitor cocktail were passed through a 25-G syringe (BD Biosciences) 20 times on ice. The homogenized cells were centrifuged at 1000×g for 15 minutes at 4° C. The supernatant was further centrifuged at 10,000×g for 10 minutes at 4° C. to pellet the mitochondria from supernatant cytosolic fraction. qPCR was performed after DNA purification with AllPrep DNA/RNA Mini Kit according to manufacturer's instructions, from both whole cell extracts and cytosolic fractions using mtDNA primers (D-loop, Cox1, non-NUMT), or after DNA purification from whole cell extracts using nuclear DNA primers (Tert, 18S, B2m). The Ct values obtained for mtDNA abundance in whole cell extracts served as normalization controls for the mtDNA values obtained from the cytosolic fractions. For the measurement of Ox-mtDNA, purified mtDNA was extracted from the cytosolic or mitochondrial fractions as indicated. The 8-OH-dG content was then quantified using 8-hydroxy 2-deoxyguanosine ELISA Kit, per manufacturer's instructions.

[6] = system: BMDM; assay: cytosolic Ox-mtDNA (8-OH-dG ELISA of cytosolic mtDNA) in BMDM; assay type: cell-based, mouse; settings: LPS-primed BMDM; for induction of Ox-mtDNA cytosolic release by mtROS generator: DMNQ 20 μM 16 hrs or MitoParaquat 5 μM 1 hr
Experimental: as §2, §4

[7] = system: BMDM; assay: 8-OH-dG content of mtDNA from mitochondria of BMDM; settings: LPS-primed BMDM, DMNQ 20 μM 16 hrs or MitoParaquat 5 μM 1 hr
Experimental: as §2, §4

[8] = system: BMDM; assay: extracellular (cell-free) mtDNA released by donor BMDM; assay type: cell-based, mouse; settings: 1500,000 donor cells per group; LPS-primed only approximately 0.1 μg
Experimental: Extracellular DNA of donor macrophages (1500,000 cells per group) was isolated using QIAamp Circulating Nucleic Acid Kit according to manufacturer's instructions and then eluted in 300 μL distilled H2O and quantified using spectrophotometric analysis at 260/280 nm with Nanodrop. […] Applicant used 5% of the prepared DNA for qPCR measurement of extracellular mtDNA and the remaining 95% were added to the recipient BMDM for analyzing the paracrine immunostimulatory effects.

[9] = system: BMDM; assay: total mtDNA (LPS-stimulated mtDNA synthesis, qPCR) in BMDM; assay type: cell-based, mouse; settings: compound 10 μM 16 h, before or after LPS priming
Text: Nuclear DNA encoding telomerase reverse transcriptase (Tert), 18S ribosomal RNA and β2 microglobulin (B2m) was used for normalization.

[10] = system: TNF; assay: TNF secretion by BMDM (ELISA); assay type: cell-based, mouse; settings: compound pretreatment 16 h, LPS priming, NLRP3 activators
Text: as §1

[11] = system: BMDM; assay: mitochondrial Ca2+ ([Ca^2+]m, Rhod-2) in BMDM; assay type: cell-based, mouse; settings: LPS-primed BMDM, XeC 5 μM or RuR 10 μM 16 h
Experimental: After washing, BMDM were kept in the incubator for additional 30 minutes before confocal imaging (Nikon CSU-X1 Spinning Disk). Dynamic [Ca^2+]m images were captured at 10 seconds intervals for 4 minutes, with the addition of NLRP3 agonist at 40 seconds.

[12] = system: NLRP3, pro-IL-1β, pro-casp1 and ASC; assay: immunoblot of NLRP3 inflammasome component expression in BMDM lysates; assay type: cell-based, mouse; settings: BMDM lysates before and after LPS priming, compound pretreatment 16 h
[13] = system: BMDM; assay: stimulation of naive recipient BMDM by cell-free mtDNA (cytokine and ISG mRNA, qPCR); assay type: cell-based, mouse; settings: recipient BMDM with Pitstop 2 (2 uM), 24 hrs with extracellular DNA
Experimental: RNA was extracted using AllPrep DNA/RNA Mini kit, and cDNA was synthesized using SuperScript™ VILO™ cDNA Synthesis Kit. mRNA expression was determined by QPCR in a CFX96 thermal cycler (Biorad) as described (Xian et al., 2021). Data are presented in arbitrary units and calculated by the 2^(−ΔΔCT) method. Primer sequences were obtained from the NIH qPrimerDepot (http://mouseprimerdepot.nci.nih.gov) and provided by Integrated DNA technologies.
Extracellular DNA of donor macrophages (1500,000 cells per group) was isolated using QIAamp Circulating Nucleic Acid Kit according to manufacturer's instructions and then eluted in 300 μL distilled H2O and quantified using spectrophotometric analysis at 260/280 nm with Nanodrop. DNA amounts purified among the different treatment groups vary. The DNA amount secreted from LPS-primed donor BMDM is low, approximately at 0.1 μg. The amount of DNA released by LPS-primed donor BMDM challenged with ATP is about 1.3 μg, while the amount of DNA released by LPS-primed donor BMDM challenged with nigericin is around 2 μg. The amount of DNA secreted by LPS-primed donor BMDM challenged with MSU or alum is about 0.7 μg. Applicant used 5% of the prepared DNA for qPCR measurement of extracellular mtDNA and the remaining 95% were added to the recipient BMDM for analyzing the paracrine immunostimulatory effects.

[14] = compound 10 μM 16 h, ATP 4 mM 1 h

`C[n+]1ccc(-c2cc[n+](CCCCCCCCCC[P+](c3ccccc3)(c3ccccc3)c3ccccc3)cc2)cc1.[I-].[I-].[I-]` [mitoParaquat] was tested, and the “induction of mPTP opening by mtROS generator” value [1] was “neither compound induced”, the “induction of VDAC oligomerization by mtROS generator” value [2] was “neither compound induced” and the “mtROS generated by the compound itself” value [3] was “as much mtROS as ATP”. The “activation of NLRP3 inflammasome by mtROS generator” value [4] was “neither mtROS generator activated”, the “induction of mtDNA cytosolic release by mtROS generator” value [5] was “neither compound induced” and the “induction of Ox-mtDNA cytosolic release by mtROS generator” value [6] was “neither compound induced”. For the same compound, the “mtDNA oxidation caused by mtROS generator” value [7] was “augmented”.

With `COC1=C(OC)C(=O)c2ccccc2C1=O` [DMNQ] the “induction of mPTP opening by mtROS generator” value [1] was “neither compound induced”, the “induction of VDAC oligomerization by mtROS generator” value [2] was “neither compound induced” and the “mtROS generated by the compound itself” value [3] was “as much mtROS as ATP”. For the same compound, the “activation of NLRP3 inflammasome by mtROS generator” value [4] was “neither mtROS generator activated”, the “induction of mtDNA cytosolic release by mtROS generator” value [5] was “neither compound induced” and the “induction of Ox-mtDNA cytosolic release by mtROS generator” value [6] was “neither compound induced”. For the same compound, the “mtDNA oxidation caused by mtROS generator” value [7] was “augmented”.

In the case of `O=c1[nH]c(=O)c2[nH]c([O-])nc2[nH]1.[Na+]` [MSU, monosodium urate], the “amount of DNA released by LPS-primed donor BMDM challenged with the NLRP3 activator” value (“amount of DNA released” below) [8] is reported as “about 0.7 μg”.

In the case of `N.N.N.N.N.N.N.N.N.N.N.N.N.N.[Cl-].[Cl-].[Cl-].[Cl-].[Cl-].[Cl-].[O-2].[O-2].[Ru+3].[Ru+3].[Ru+4]` [RuR, ruthenium red], the “mPTP opening (calcein fluorescence)” value ([1]; BMDM pretreated 16 h (CsA 1 μM, VBIT-4 10 μM, RuR 10 μM), LPS-primed, ATP or nigericin 1 h) is reported as “blocked”, the “LPS-stimulated mtDNA synthesis (total mtDNA)” value [9] is reported as “did not inhibit” and the TNF secretion [10] is reported as “no effect”. The “ATP- or nigericin-induced [Ca^2+]m pulse (Rhod-2 fluorescence)” value [11] was “disrupted”, the “VDAC oligomerization induced by NLRP3 activator” value ([2]; compound pretreatment 16 h (VBIT-4 10 μM, CsA 1 μM, RuR 10 μM), ATP 4 mM or nigericin 10 μM 1 h) was “blocked” and the “NLRP3 inflammasome activation (Casp1 activation and mature IL-1β secretion)” value ([4]; LPS-primed BMDM, compound pretreatment 16 h, challenged with NLRP3 activators) was “suppressed”. For the same compound, the “cytosolic mtDNA release” value [5, 14] was “reducing”, the “NLRP3, pro-IL-1β, pro-casp1 and ASC expression” value [12] was “no effect” and the “cytosolic Ox-mtDNA (release)” value [6, 14] was “reducing”.

`CO[C@@H]1C[C@@H](C[C@H]2CC[C@H](C)[C@H]([C@@H](C)C(=O)O)O2)O[C@]2(O[C@](C)([C@H]3CC[C@@](C)([C@@H]4O[C@@H]([C@H]5O[C@@](O)(CO)[C@H](C)C[C@@H]5C)C[C@@H]4C)O3)C[C@H]2C)[C@@H]1C` [nigericin] was tested, and the “amount of DNA released” value [8] was “around 2 μg”.

With `O=C1NC(=NS(=O)(=O)c2cccc3ccccc23)S/C1=C\c1ccc(Br)cc1` [Pitstop2] the “cytokine mRNA induction by extracellular mtDNA” value [13] was “diminish”.

In the case of `Nc1ncnc2c1ncn2[C@@H]1O[C@H](COP(=O)(O)OP(=O)(O)OP(=O)(O)O)[C@@H](O)[C@H]1O` [ATP, adenosine triphosphate], the “amount of DNA released” value [8] is reported as “about 1.3 μg”.
